According to PubChem BioAssay (NCI):
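96-well plates; 48 h exposure; 5 concentrations. Endpoints by linear interpolation between flanking doses. Not reached: highest tested concentration assigned. The concentration for full growth arrest is given as TGI.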

Key:
Test in all cases: NCI-60 cell line screen, 48 h
DMS 273 small cell lung = test system: DMS 273 small cell lung
SN12C renal = test system: SN12C renal
OVCAR-5 ovarian = test system: OVCAR-5 ovarian
RXF 393 renal = test system: RXF 393 renal
COLO 205 colon = test system: COLO 205 colon
HOP-62 NSCLC = test system: HOP-62 NSCLC
KM12 colon = test system: KM12 colon
U251 CNS = test system: U251 CNS
MALME-3M melanoma = test system: MALME-3M melanoma
HCT-15 colon = test system: HCT-15 colon
SK-OV-3 ovarian = test system: SK-OV-3 ovarian
IGROV1 ovarian = test system: IGROV1 ovarian
KM20L2 colon = test system: KM20L2 colon
SNB-19 CNS = test system: SNB-19 CNS
OVCAR-4 ovarian = test system: OVCAR-4 ovarian
SW-620 colon = test system: SW-620 colon
SNB-75 CNS = test system: SNB-75 CNS
SK-MEL-28 melanoma = test system: SK-MEL-28 melanoma
XF 498 CNS = test system: XF 498 CNS
CAKI-1 renal = test system: CAKI-1 renal
A498 renal = test system: A498 renal
NCI-H522 lung = test system: NCI-H522 lung
M14 melanoma = test system: M14 melanoma
LOX IMVI melanoma = test system: LOX IMVI melanoma
SF-539 CNS = test system: SF-539 CNS
OVCAR-8 ovarian = test system: OVCAR-8 ovarian
ACHN renal = test system: ACHN renal
MOLT-4 leukemia = test system: MOLT-4 leukemia
HCC-2998 colon = test system: HCC-2998 colon
OVCAR-3 ovarian = test system: OVCAR-3 ovarian
SR leukemia = test system: SR leukemia
A549 NSCLC = test system: A549 NSCLC
UO-31 renal = test system: UO-31 renal
NCI-H23 lung = test system: NCI-H23 lung
TK-10 renal = test system: TK-10 renal
UACC-257 melanoma = test system: UACC-257 melanoma
HOP-92 NSCLC = test system: HOP-92 NSCLC
M19-MEL melanoma = test system: M19-MEL melanoma
SF-295 CNS = test system: SF-295 CNS
SK-MEL-5 melanoma = test system: SK-MEL-5 melanoma
CCRF-CEM leukemia = test system: CCRF-CEM leukemia
NCI-H460 lung = test system: NCI-H460 lung
HCT-116 colon = test system: HCT-116 colon
EKVX NSCLC = test system: EKVX NSCLC
SK-MEL-2 melanoma = test system: SK-MEL-2 melanoma
UACC-62 melanoma = test system: UACC-62 melanoma
K-562 leukemia = test system: K-562 leukemia
HOP-18 NSCLC = test system: HOP-18 NSCLC
DLD-1 colon = test system: DLD-1 colon
SNB-78 CNS = test system: SNB-78 CNS
HL-60(TB) leukemia = test system: HL-60(TB) leukemia
NCI-H226 lung = test system: NCI-H226 lung
786-0 renal = test system: 786-0 renal
HT29 colon = test system: HT29 colon
RPMI-8226 leukemia = test system: RPMI-8226 leukemia
DMS 114 small cell lung = test system: DMS 114 small cell lung
SF-268 CNS = test system: SF-268 CNS

CS(=O)(=O)OCCN(CCOS(C)(=O)=O)c1ccc(/C=N/Nc2ncnc3nc[nH]c23)cc1
TGI (DMS 273 small cell lung): 35.4 µM
TGI (SN12C renal): > 100 µM
TGI (OVCAR-5 ovarian): 51.4 µM
TGI (RXF 393 renal): 37.9 µM
TGI (COLO 205 colon): 31.7 µM
TGI (HOP-62 NSCLC): 74.8 µM
TGI (KM12 colon): 34.8 µM
TGI (U251 CNS): 53.5 µM
TGI (MALME-3M melanoma): 55.2 µM
TGI (HCT-15 colon): > 100 µM
TGI (SK-OV-3 ovarian): > 100 µM
TGI (IGROV1 ovarian): 71.6 µM
TGI (KM20L2 colon): 58 µM
TGI (SNB-19 CNS): > 100 µM
TGI (OVCAR-4 ovarian): 60 µM
TGI (SW-620 colon): 66.8 µM
TGI (SNB-75 CNS): 33.6 µM
TGI (SK-MEL-28 melanoma): 63.4 µM
TGI (XF 498 CNS): 38.8 µM
TGI (CAKI-1 renal): 32.5 µM
TGI (A498 renal): 60.6 µM
TGI (NCI-H522 lung): 31.1 µM
TGI (M14 melanoma): 34.1 µM
TGI (LOX IMVI melanoma): 37.7 µM
TGI (SF-539 CNS): 49.4 µM
TGI (OVCAR-8 ovarian): 57.7 µM
TGI (ACHN renal): 97.2 µM
TGI (MOLT-4 leukemia): 40 µM
TGI (HCC-2998 colon): 39.5 µM
TGI (OVCAR-3 ovarian): 39.8 µM
TGI (SR leukemia): 46 µM
TGI (A549 NSCLC): 96.6 µM
TGI (UO-31 renal): 92 µM
TGI (NCI-H23 lung): 39 µM
TGI (TK-10 renal): 63.6 µM
TGI (UACC-257 melanoma): 48.9 µM
TGI (HOP-92 NSCLC): 63.5 µM
TGI (M19-MEL melanoma): 51 µM
TGI (SF-295 CNS): 46.6 µM
TGI (SK-MEL-5 melanoma): 31.7 µM
TGI (CCRF-CEM leukemia): > 100 µM
TGI (NCI-H460 lung): 34.3 µM
TGI (HCT-116 colon): 59.9 µM
TGI (EKVX NSCLC): 78.4 µM
TGI (SK-MEL-2 melanoma): 39.2 µM
TGI (UACC-62 melanoma): 27.8 µM
TGI (K-562 leukemia): > 100 µM
TGI (HOP-18 NSCLC): 70.7 µM
TGI (DLD-1 colon): 74.9 µM
TGI (SNB-78 CNS): 75.5 µM
TGI (HL-60(TB) leukemia): 27.1 µM
TGI (NCI-H226 lung): 51.7 µM
TGI (786-0 renal): 45.5 µM
TGI (HT29 colon): 65.9 µM
TGI (RPMI-8226 leukemia): 39 µM
TGI (DMS 114 small cell lung): 26.2 µM
TGI (SF-268 CNS): 46.1 µM

N#Cc1cn(-c2c3ccccc3nc3ccccc23)c(=O)[nH]c1=O
TGI (OVCAR-5 ovarian): 32.9 µM
TGI (COLO 205 colon): 64.3 µM
TGI (KM12 colon): 79.5 µM
TGI (U251 CNS): 71 µM
TGI (MALME-3M melanoma): 24.3 µM
TGI (HCT-15 colon): 31.9 µM
TGI (SK-OV-3 ovarian): 33.1 µM
TGI (IGROV1 ovarian): 71.8 µM
TGI (KM20L2 colon): 32.2 µM
TGI (SNB-19 CNS): 90.7 µM
TGI (OVCAR-4 ovarian): 20.4 µM
TGI (SW-620 colon): 38 µM
TGI (SNB-75 CNS): 33.3 µM
TGI (SK-MEL-28 melanoma): 31.4 µM
TGI (XF 498 CNS): 25.2 µM
TGI (CAKI-1 renal): 45.6 µM
TGI (NCI-H522 lung): 18.3 µM
TGI (M14 melanoma): 28.5 µM
TGI (LOX IMVI melanoma): 21.2 µM
TGI (SF-539 CNS): 7.71 µM
TGI (OVCAR-8 ovarian): 27.6 µM
TGI (ACHN renal): 34.8 µM
TGI (MOLT-4 leukemia): 22.6 µM
TGI (OVCAR-3 ovarian): 35.6 µM
TGI (SR leukemia): 24.6 µM
TGI (A549 NSCLC): 24 µM
TGI (UO-31 renal): 25 µM
TGI (TK-10 renal): > 100 µM
TGI (UACC-257 melanoma): 27.7 µM
TGI (HOP-92 NSCLC): 23.1 µM
TGI (M19-MEL melanoma): 46.1 µM
TGI (SF-295 CNS): 23.8 µM
TGI (CCRF-CEM leukemia): 41.7 µM
TGI (HCT-116 colon): > 100 µM
TGI (EKVX NSCLC): 38.1 µM
TGI (SK-MEL-2 melanoma): 24.9 µM
TGI (UACC-62 melanoma): 38.8 µM
TGI (K-562 leukemia): 23.3 µM
TGI (DLD-1 colon): > 100 µM
TGI (SNB-78 CNS): 49.8 µM
TGI (HL-60(TB) leukemia): 30.6 µM
TGI (786-0 renal): 13.5 µM
TGI (HT29 colon): 28.5 µM
TGI (RPMI-8226 leukemia): 75.8 µM
TGI (DMS 114 small cell lung): 35.4 µM
TGI (SF-268 CNS): 29.7 µM
